Some results are limits rather than exact numbers.

What is called IC50 is the concentration that inhibits the measured activity by half.

The target in the first test is T1, Human CB1 receptor (Homo sapiens, UniProt P21554).
T1 construct: host or cells: CHO cells; the membrane fraction was prepared in house from the purchased recombinant line
T1 sequence (P21554 whole entry): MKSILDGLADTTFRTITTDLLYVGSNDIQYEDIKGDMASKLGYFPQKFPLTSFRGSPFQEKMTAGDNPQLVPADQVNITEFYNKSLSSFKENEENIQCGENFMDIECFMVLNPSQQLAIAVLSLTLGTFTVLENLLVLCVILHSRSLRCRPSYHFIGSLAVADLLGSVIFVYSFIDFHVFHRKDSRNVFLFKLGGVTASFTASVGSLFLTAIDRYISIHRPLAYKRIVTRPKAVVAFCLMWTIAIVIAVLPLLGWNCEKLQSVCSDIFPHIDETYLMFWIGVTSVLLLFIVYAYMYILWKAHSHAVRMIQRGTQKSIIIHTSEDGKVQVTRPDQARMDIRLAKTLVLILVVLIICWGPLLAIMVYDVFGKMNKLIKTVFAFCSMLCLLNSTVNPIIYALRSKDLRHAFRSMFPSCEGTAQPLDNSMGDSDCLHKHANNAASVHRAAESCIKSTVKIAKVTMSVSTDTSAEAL
Put plainly: Human CB1 receptor binding assay ([3H]-CP55940 displacement).
Conditions: not given
The procedure:
[Human CB1 Receptor Binding Assay]
(1) Preparation of human CB1 receptor (membrane fraction):
Human CB1-expressing cell line: hCB1/CHO#C3 (Euroscreen)
The receptor-expressing cells cultivated in the above medium were washed with phosphate buffer (×2) and thereto was added Buffer A (2 mL) under ice-cooling or 4° C. (the following procedures were also carried out at the same temperature). The cells were collected by using a cell-scraper, treated by a microtip-type ultrasonicator for 20 seconds (pulse-on: 2 sec, pulse-off: 1 sec) and centrifuged (500×g, 15 min). The supernatant was separated and centrifuged (43000×g, 60 min). The resultant pellet was suspended in Buffer A and homogenized with a potter-type homogenizer. To the homogenate was added an equal volume of 80% glycerol and stored at −80° C.
(2) Procedure of CB1 Receptor Binding Assay:
Radioligand: [^3H]-CP55940 (30 nM/7992 dpm/μL) prepared by diluting 8.3 µM solution of the radioligand with Buffer B
Each well of the assay plate (96-well, Costar Code#3371) was filled with Buffer B (140 μL), a solution of each test compound in dimethylsulfoxide (20 μL, […]), radioligand (20 μL) and membrane preparation (20 μL, 0.5 µg/20 μL) and the mixture was incubated at 30° C. for 90 minutes to proceed the binding reaction. The reaction mixture was harvested to each well of a plate presoaked with the above coating solution (Packard Unifilter GF/B, #6005177). The plate was washed with Buffer C (200 μL×10) and dried at 50° C. for 1 hour and Microscinti 40 (40 μL) was added to each well. The bound radiolabel was quantitated by scintilation counting (Top Count NXT, Packard). IC50 value of each test compound against the radioligand-binding to CB1 receptors was calculated on the basis of the quantitated radiolabel activity by using Graphpad Prism 3.02.
Regarding `COc1c(C(=O)NC2CCCC2)nn(-c2ccccc2Cl)c1-c1ccc(Cl)cc1` [Example 55], the IC50 was in the range of 10 to 100 nM.

`COc1c(C(=O)NN2CCN(c3ccc(C(F)F)cn3)CC2)nn(-c2ccccc2Cl)c1-c1ccc(Cl)cc1` [Example 339, 1-(2-chlorophenyl)-5-(4-chlorophenyl)-3-[N-[4-(5-difluoromethyl-pyridin-2-yl)piperazin-1-yl]carbamoyl]-4-methoxy-1H-pyrazole] displayed an IC50 of 10 to 100 nM.

The test is the same for the next values; noted with them: radioligand [3H]-CP55940, membrane fraction of hCB1/CHO cells, 30° C. for 90 minutes; read-out: IC50.
Take “1-(2-chlorophenyl)-5-(4-chlorophenyl)-4-hydroxy-3-[N′-(4-tetrahydropyranyl)ureido]-1H-pyrazole [Example 18]”: the IC50 was in the range of 10 to 100 nM. On the same count and under the same terms, for `COc1c(C(=O)NCC(F)(F)F)nn(-c2ccccc2Cl)c1-c1ccc(Cl)cc1` [Example 4] the value was 10 to 100 nM; for `COc1c(C(=O)CN2CCS(=O)(=O)CC2)nn(-c2ccccc2Cl)c1-c1ccc(Cl)cc1` [Example 36, 1-(2-chlorophenyl)-5-(4-chlorophenyl)-4-methoxy-3-[1-(1,1-dioxothiomorpholino)acetyl]-1H-pyrazole], 10 to 100 nM.

Regarding `COc1c(C(=O)NN(C)C)nn(-c2ccccc2Cl)c1-c1ccc(C(F)(F)F)cc1` [Example 134], the IC50 lay in the range of 10 to 100 nM. For `COCCOc1c(C(=O)NN2CCCC2)nn(-c2ccccc2Cl)c1-c1ccc(C(F)(F)F)cc1` [Example 148], the IC50 fell in the range of 10 to 100 nM. Same read-out and setting: next, `COc1c(C(=O)NN2CCN(C(=O)c3ccc(F)cc3F)CC2)nn(-c2ccccc2Cl)c1-c1ccc(Cl)cc1` [Example 216]: 10 to 100 nM; `NC(=O)COc1c(C(=O)NN2CCC(C(N)=O)(c3ccccc3)CC2)nn(-c2ccccc2Cl)c1-c1ccc(Cl)cc1` [Example 276, 1-(2-chlorophenyl)-5-(4-chloro-phenyl)-4-carbamoylmethoxy-3-[N-(4-carbamoyl-4-phenylpiperidin-1-yl)carbamoyl]-1H-pyrazole]: 10 to 100 nM; `CCNC1(C(N)=O)CCN(C(=O)c2nn(-c3ccccc3Cl)c(-c3ccc(Cl)cc3)c2O)CC1` [Example 279, 1-(2-chlorophenyl)-5-(4-chlorophenyl)-4-hydroxy-3-[[4-carbamoyl-4-(ethylamino)piperidino]carbonyl]-1H-pyrazole]: 10 to 100 nM. Turning to `CCNC(=O)NCCOc1c(C(=O)NN2CCCC2)nn(-c2ccccc2Cl)c1-c1ccc(Cl)cc1` [Example 288, 1-(2-chlorophenyl)-5-(4-chlorophenyl)-4-[2-(N′-ethylureido)ethoxy]-3-[N-(1-pyrrolidinyl)carbamoyl]-1H-pyrazole], the IC50 fell in the range of 100 to 500 nM.

Consider `O=C(NN1CCC(F)(F)CC1)c1nn(-c2ccccc2Cl)c(-c2ccc(Cl)cc2)c1OC(F)F` [Example 307], for which the IC50 was less than 10 nM.
